Experimental data as given in patent US9724312B2, “Agent for the prevention, improvement or treatment of retinal disease” (ROHTO PHARMACEUTICAL CO., LTD., priority 2012, dated 2017).

Test system: PC12
Experiment: Protective effect against ischemic cell death induced by hypoxia and low glucose (Cell Titer-Glo cell viability)
Format: cell-based, rat
Conditions: 30 μM, 2 h pre-incubation, then low glucose/zero percent O2 8 h, FIG. 1, n=10, Tukey-Kramer
From the text: The progress of visual impairment in glaucoma is associated with retinal ganglion cell (RGC) death due to blood flow failure occurring near the optic nerve (Folia Pharmacol. Jpn. 128, 255-258 (2006)). With the use of PC12, which is a typical neural cell line established from rat adrenal […] pheochromocytoma and used also as a model cell for the functional evaluation of RGC (J Neurosci Res. 2000 May 15; 60(4): 495-503), the cytoprotective effect of GGA against ischemic cell death induced by hypoxia and low glucose was evaluated.
Test samples were prepared as follows. The test substances were four types of GGAs that contain the all-trans form and the 5Z-mono-cis form at a weight ratio of 10:0, 8:2, 6:4, and 0:10, respectively. […]
After 8 hours of incubation, 100 μL of an equivalent mixture of a cell viability detection reagent Cell Titer-Glo (Promega) and PBS was added to each well and the luminescence produced by the reaction with ATP in living cells was measured with a luminometer (GloMax; Promega). The cell viability was calculated from the measured luminescence by the following formula and the cytoprotective effect of GGA against oxidative stress by hydrogen peroxide was examined. Cell viability(%)=100×[(luminescence of base- or GGA-treated group)/(luminescence of non-treated group)]

With CC(=O)CC/C=C(\C)CC/C=C(\C)CC/C=C(\C)CCC=C(C)C [all-trans form, (5E,9E,13E)-6,10,14,18-tetramethyl-5,9,13,17-nonadecatetrae n-2-one] the “cytoprotective effect compared with GGA 6:4” value was “significantly higher cytoprotective effects”.
